Assay results reported in ChEMBL document CHEMBL1201862, “PubChem BioAssay data set” (2004).
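How tested: cells in 96-well plates exposed to compound for 48 hours at five concentrations. Abbreviation: GI50, concentration required for 50% inhibition of growth.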 Active and inactive are the calls of the source. Cut-off read from the data, not from the text of the source: active = GI50 up to about 1.1 µM and inactive = higher.

How the values were obtained:
Assay in all cases: NCI anticancer screen, dose series, 48 h
ACHN = test system: ACHN
CCRF-CEM = test system: CCRF-CEM
HCC 2998 = test system: HCC 2998
IGROV-1 = test system: IGROV-1
M14 = test system: M14
NCI-H23 = test system: NCI-H23
NCI-H460 = test system: NCI-H460
SF-539 = test system: SF-539
SK-MEL-28 = test system: SK-MEL-28
SK-MEL-5 = test system: SK-MEL-5
SK-OV-3 = test system: SK-OV-3
SN12C = test system: SN12C
SNB-19 = test system: SNB-19
SR = test system: SR
SW-620 = test system: SW-620
UO-31 = test system: UO-31

Compound | GI50 (ACHN) | GI50 (CCRF-CEM) | GI50 (HCC 2998) | GI50 (IGROV-1) | GI50 (M14) | GI50 (NCI-H23) | GI50 (NCI-H460) | GI50 (SF-539) | GI50 (SK-MEL-28) | GI50 (SK-MEL-5) | GI50 (SK-OV-3) | GI50 (SN12C) | GI50 (SNB-19) | GI50 (SR) | GI50 (SW-620) | GI50 (UO-31)
C/N=c1\ss/c(=N\C(=S)N(C)C)n1C | > 100 µM (inactive) | > 100 µM (inactive) | > 100 µM (inactive) | > 100 µM (inactive) | > 100 µM (inactive) | > 100 µM (inactive) | > 100 µM (inactive) | > 100 µM (inactive) | > 100 µM (inactive) | > 100 µM (inactive) | > 100 µM (inactive) | > 100 µM (inactive) | > 100 µM (inactive) | > 100 µM (inactive) | > 100 µM (inactive) | > 100 µM (inactive)
CCOC(=O)NC(=O)c1cn(C2OC(COC(=O)CCCCCCCCC(=O)OCC3OC(n4cc(C(=O)NC(=O)OCC)c(=O)[nH]c4=O)C4OC(C)(C)OC34)C3OC(C)(C)OC32)c(=O)[nH]c1=O (centres undefined) | > 100 µM (inactive) | 30.1 µM (inactive) | 57.3 µM (inactive) | > 100 µM (inactive) | 63.4 µM (inactive) | > 100 µM (inactive) | > 100 µM (inactive) | > 100 µM (inactive) | 84.1 µM (inactive) | 54.1 µM (inactive) |  | 83.8 µM (inactive) | 51.6 µM (inactive) | 78.5 µM (inactive) | 35.8 µM (inactive) | > 100 µM (inactive)
O=C(O)C1C2CCC(O2)C1C(=O)N1CCCCC1 (centres undefined) | 4.54 µM (inactive) |  | 4.11 µM (inactive) | 30.5 µM (inactive) | 12.7 µM (inactive) | 11.7 µM (inactive) | 12.8 µM (inactive) | 9.4 µM (inactive) | 5.83 µM (inactive) | 13.8 µM (inactive) | 15.7 µM (inactive) | 2.57 µM (inactive) | 15.5 µM (inactive) | 3.68 µM (inactive) | 3.43 µM (inactive) | 19.9 µM (inactive)
COC1(OC)CC2C(=O)N(Cc3ccccc3)C1CC2S(=O)(=O)c1ccccc1 (centres undefined) | > 100 µM (inactive) | > 100 µM (inactive) |  | > 100 µM (inactive) | > 100 µM (inactive) | > 100 µM (inactive) | > 100 µM (inactive) | > 100 µM (inactive) | > 100 µM (inactive) | > 100 µM (inactive) | > 100 µM (inactive) | > 100 µM (inactive) | > 100 µM (inactive) |  | > 100 µM (inactive) | 62.1 µM (inactive)
CCC12C=CCN3CCC4(c5cc(C6(C(=O)OC)CCCCCc7c6[nH]c6ccccc76)c(OC)cc5N(C)C4C(O)(C(=O)OC)C1OC(C)=O)C32 (centres undefined) | 1.61 µM (inactive) | 1.97 µM (inactive) | 2.04 µM (inactive) | 2.16 µM (inactive) | 2.64 µM (inactive) |  | 2.31 µM (inactive) | 2.25 µM (inactive) | 2.23 µM (inactive) |  |  | 3.63 µM (inactive) | 3.15 µM (inactive) | 2.54 µM (inactive) | 3.3 µM (inactive) | 2 µM (inactive)
OCc1ccc(C2CC(c3ccco3)=NN2c2ccccc2)o1 (centres undefined) | > 100 µM (inactive) | > 100 µM (inactive) |  | > 100 µM (inactive) | > 100 µM (inactive) | > 100 µM (inactive) | > 100 µM (inactive) | > 100 µM (inactive) | > 100 µM (inactive) | > 100 µM (inactive) |  | > 100 µM (inactive) | > 100 µM (inactive) | > 100 µM (inactive) | > 100 µM (inactive) | > 100 µM (inactive)
Cc1csc(=S)n1OC(=O)NC1CCCCC1 | > 100 µM (inactive) | 9.57 µM (inactive) | > 100 µM (inactive) | > 100 µM (inactive) | 40.9 µM (inactive) | > 21.9 µM (inactive) | > 100 µM (inactive) | > 100 µM (inactive) | > 34.6 µM (inactive) | > 51.4 µM (inactive) | > 100 µM (inactive) | > 100 µM (inactive) | > 100 µM (inactive) | 12.1 µM (inactive) | > 56.8 µM (inactive) | > 100 µM (inactive)
CCOC(=O)NC(=O)c1cn(CCOC(=O)CCCCCCCCC(=O)OCCn2cc(C(=O)NC(=O)OCC)c(=O)[nH]c2=O)c(=O)[nH]c1=O | > 100 µM (inactive) | > 100 µM (inactive) | > 100 µM (inactive) | > 100 µM (inactive) | > 100 µM (inactive) | 23.9 µM (inactive) | > 100 µM (inactive) | > 100 µM (inactive) | > 100 µM (inactive) | > 100 µM (inactive) |  | > 100 µM (inactive) | > 100 µM (inactive) | > 100 µM (inactive) | > 100 µM (inactive) | > 100 µM (inactive)
CCCCCCCCCC(=O)CC(=O)c1ccc(O)cc1O | 28.6 µM (inactive) | 33.9 µM (inactive) | 21.3 µM (inactive) | 31.5 µM (inactive) | 22.1 µM (inactive) | 25.6 µM (inactive) | 31.8 µM (inactive) | 26.5 µM (inactive) | 39.8 µM (inactive) | 17.6 µM (inactive) | > 100 µM (inactive) | 27.3 µM (inactive) | 37 µM (inactive) | 15.8 µM (inactive) | 36.5 µM (inactive) | 19.7 µM (inactive)
Cc1cccc(Cl)c1NC(=O)c1cccc([N+](=O)[O-])c1O | 31.9 µM (inactive) | 73.5 µM (inactive) | 31.7 µM (inactive) | 34.5 µM (inactive) | 43.8 µM (inactive) | 28.1 µM (inactive) | 29 µM (inactive) | 26.8 µM (inactive) | 41.5 µM (inactive) |  | 43.2 µM (inactive) | 31.9 µM (inactive) | 38.5 µM (inactive) |  | 59 µM (inactive) | 19.8 µM (inactive)
Cc1cccc(NC(=O)C(=O)C(C(=O)c2ccc3ccccc3c2)C2OC(=O)c3ccccc32)c1C (centres undefined) | 28.1 µM (inactive) | 8.02 µM (inactive) | 6.03 µM (inactive) | 17.5 µM (inactive) | 14.4 µM (inactive) | 8.99 µM (inactive) | 9.16 µM (inactive) | 6.53 µM (inactive) | 5.2 µM (inactive) | 12.4 µM (inactive) | 12.7 µM (inactive) | 15.9 µM (inactive) | 5.4 µM (inactive) |  | 7.98 µM (inactive) | 14.5 µM (inactive)
COc1cc(C(C#N)NNC(=O)c2ccccc2O)ccc1O (centres undefined) | 0.873 µM (active) | 2.08 µM (inactive) |  | 1.54 µM (inactive) | 2.79 µM (inactive) | 2.07 µM (inactive) | 1.47 µM (inactive) | 3 µM (inactive) | 30.6 µM (inactive) | 9.95 µM (inactive) | 3.18 µM (inactive) | 7.03 µM (inactive) |  | > 100 µM (inactive) | 8.32 µM (inactive) | 0.701 µM (active)
CO[C@@]12CC(=O)/C(=C(O)\C=C\c3ccccc3)C(=O)[C@]1(OC)Cc1ccccc1O2 | 25.4 µM (inactive) | 22.4 µM (inactive) | 22.3 µM (inactive) | 54 µM (inactive) | 28.1 µM (inactive) | 20.6 µM (inactive) | 28.9 µM (inactive) | 24 µM (inactive) | 22.4 µM (inactive) | 36.5 µM (inactive) | 54 µM (inactive) | 30.6 µM (inactive) | 30.1 µM (inactive) |  | 31.3 µM (inactive) | 40 µM (inactive)
CCC12C=CCN3CCC4(C(=C(C(=O)OC)C1)Nc1ccccc14)[C@H]32 (some centres undefined) | 64 µM (inactive) | 22.2 µM (inactive) | 33.3 µM (inactive) | 39.1 µM (inactive) | 21.6 µM (inactive) | 28.4 µM (inactive) | 18.8 µM (inactive) | 20.5 µM (inactive) | 41.7 µM (inactive) | 27.2 µM (inactive) | 21.8 µM (inactive) |  | 26.6 µM (inactive) | 0.0364 µM (active) | 26 µM (inactive) | 65.2 µM (inactive)
O=C(NCCNCCO)N/N=C/c1ccccc1 | > 100 µM (inactive) | > 100 µM (inactive) |  | > 100 µM (inactive) | > 100 µM (inactive) | > 100 µM (inactive) | > 100 µM (inactive) | > 100 µM (inactive) | > 100 µM (inactive) | > 100 µM (inactive) | > 100 µM (inactive) | > 100 µM (inactive) | > 100 µM (inactive) |  | > 100 µM (inactive) | 
CCOc1ccc(NC2=NC(=O)C(CC(=O)Nc3ccccc3[N+](=O)[O-])S2)cc1 (centres undefined) | > 100 µM (inactive) | > 100 µM (inactive) | > 100 µM (inactive) | > 100 µM (inactive) | > 100 µM (inactive) | > 100 µM (inactive) | > 100 µM (inactive) | > 100 µM (inactive) | > 100 µM (inactive) | > 100 µM (inactive) |  | > 100 µM (inactive) | > 100 µM (inactive) | > 100 µM (inactive) | > 100 µM (inactive) | > 100 µM (inactive)
COC(=O)C1=C(C)N(NC(=O)c2cccc(Cl)c2)C(C)(O)C12CCOC2=O (centres undefined) | > 100 µM (inactive) |  | > 100 µM (inactive) | > 100 µM (inactive) | > 100 µM (inactive) |  | > 100 µM (inactive) | > 100 µM (inactive) | > 100 µM (inactive) | > 100 µM (inactive) | > 100 µM (inactive) | > 100 µM (inactive) | > 100 µM (inactive) | > 100 µM (inactive) | > 100 µM (inactive) | > 100 µM (inactive)
COC1=CCC=C(C[C@@H]2NCCc3cc(OC)c(OC)cc32)C1 | > 100 µM (inactive) | > 100 µM (inactive) | > 100 µM (inactive) | > 100 µM (inactive) | > 100 µM (inactive) | > 100 µM (inactive) | > 100 µM (inactive) | > 100 µM (inactive) | > 100 µM (inactive) | > 100 µM (inactive) | > 100 µM (inactive) | > 100 µM (inactive) | > 100 µM (inactive) |  | > 100 µM (inactive) | > 100 µM (inactive)
